# Columns and labels:
# Bcl-2-like protein 1 = Bcl-2-like protein 1 (Homo sapiens, UniProt Q07817); assay: Time-resolved fluorescence energy transfer (TR-FRET) with BCL2L1
# [1] = target: T1, Muscarinic acetylcholine receptor M4 (Homo sapiens) (UniProt P08173); assay: M4 (h) Eurofins-Cerep binding assay; design: ligand concentration 0.2 nM; conditions: filed as antagonist, Compound concentration 10.0 uM
# T1 sequence (whole entry): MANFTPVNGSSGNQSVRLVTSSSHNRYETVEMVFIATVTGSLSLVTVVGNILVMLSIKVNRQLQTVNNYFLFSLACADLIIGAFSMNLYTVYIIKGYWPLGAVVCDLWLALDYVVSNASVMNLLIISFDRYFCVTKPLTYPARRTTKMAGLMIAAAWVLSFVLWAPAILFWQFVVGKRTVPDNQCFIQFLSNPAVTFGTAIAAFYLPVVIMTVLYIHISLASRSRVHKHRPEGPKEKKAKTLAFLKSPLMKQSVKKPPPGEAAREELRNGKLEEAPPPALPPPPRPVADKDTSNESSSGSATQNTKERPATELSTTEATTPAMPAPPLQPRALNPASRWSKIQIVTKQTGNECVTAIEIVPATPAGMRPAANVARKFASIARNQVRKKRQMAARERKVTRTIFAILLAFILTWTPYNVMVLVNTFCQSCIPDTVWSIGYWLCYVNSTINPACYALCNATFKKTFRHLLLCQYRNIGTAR
# Na+ channel (site 2) = Na+ channel (site 2) (Rattus norvegicus, UniProt F1LQQ7+O08562+O88420+O88457+P04774+P04775+P08104+P15389+P15390+Q62968); assay: Na+ channel (site 2) Eurofins-Cerep binding assay; format: protein assay; design: incubation time 60 min, incubation temperature 37°C, ligand concentration 10 nM; conditions: rat cerebral cortex, probe [3H]batrachotoxin (10 nM), compound concentration 10 uM, read-out: % Inhibition of Control Specific Binding (Mean n=2)
# [2] = target: Protein-tyrosine kinase 6 (Homo sapiens) (UniProt Q13882); conditions: Compound concentration 1000.0 nM
# [3] = target: Casein kinase I isoform gamma-1 (Homo sapiens) (UniProt Q9HCP0); conditions: Compound concentration 1000.0 nM
# [4] = target: Serine/threonine-protein kinase DCLK3 (Homo sapiens) (UniProt Q9C098); conditions: Compound concentration 1000.0 nM
# Sequence of Serine/threonine-protein kinase DCLK3 (Homo sapiens) (Q9C098 whole entry): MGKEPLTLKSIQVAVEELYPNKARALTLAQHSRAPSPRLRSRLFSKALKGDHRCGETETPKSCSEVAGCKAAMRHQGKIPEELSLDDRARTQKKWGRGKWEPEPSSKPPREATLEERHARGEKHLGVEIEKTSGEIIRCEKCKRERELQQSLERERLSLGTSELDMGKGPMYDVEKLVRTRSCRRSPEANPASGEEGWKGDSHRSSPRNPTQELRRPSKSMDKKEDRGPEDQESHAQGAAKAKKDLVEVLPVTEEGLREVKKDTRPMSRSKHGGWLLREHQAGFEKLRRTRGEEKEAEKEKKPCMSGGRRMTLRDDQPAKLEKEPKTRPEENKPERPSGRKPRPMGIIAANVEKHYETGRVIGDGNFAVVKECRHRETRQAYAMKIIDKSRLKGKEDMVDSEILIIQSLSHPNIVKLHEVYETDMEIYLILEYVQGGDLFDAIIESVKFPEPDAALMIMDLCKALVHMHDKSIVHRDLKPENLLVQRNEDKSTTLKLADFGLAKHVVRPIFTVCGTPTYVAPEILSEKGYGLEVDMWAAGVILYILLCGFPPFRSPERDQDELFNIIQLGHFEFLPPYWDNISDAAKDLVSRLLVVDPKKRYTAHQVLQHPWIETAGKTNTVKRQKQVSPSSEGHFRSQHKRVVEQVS
# [5] = target: Tyrosine-protein kinase FRK (Homo sapiens) (UniProt P42685); conditions: Compound concentration 1000.0 nM
# [6] = target: Tyrosine-protein kinase JAK1 (Homo sapiens) (UniProt P23458); conditions: Compound concentration 1000.0 nM
# [7] = target: LIM domain kinase 1 (Homo sapiens) (UniProt P53667); conditions: Compound concentration 1000.0 nM
# [8] = target: Myosin light chain kinase 2, skeletal/cardiac muscle (Homo sapiens) (UniProt Q9H1R3); conditions: Compound concentration 1000.0 nM
# [9] = target: Serine/threonine-protein kinase Nek5 (Homo sapiens) (UniProt Q6P3R8); conditions: Compound concentration 1000.0 nM
# [10] = target: Serine/threonine-protein kinase Nek6 (Homo sapiens) (UniProt Q9HC98); conditions: Compound concentration 1000.0 nM
# [11] = target: Serine/threonine-protein kinase OSR1 (Homo sapiens) (UniProt O95747); conditions: Compound concentration 1000.0 nM
# Sequence of Serine/threonine-protein kinase OSR1 (Homo sapiens) (O95747 2-527 limits assumed): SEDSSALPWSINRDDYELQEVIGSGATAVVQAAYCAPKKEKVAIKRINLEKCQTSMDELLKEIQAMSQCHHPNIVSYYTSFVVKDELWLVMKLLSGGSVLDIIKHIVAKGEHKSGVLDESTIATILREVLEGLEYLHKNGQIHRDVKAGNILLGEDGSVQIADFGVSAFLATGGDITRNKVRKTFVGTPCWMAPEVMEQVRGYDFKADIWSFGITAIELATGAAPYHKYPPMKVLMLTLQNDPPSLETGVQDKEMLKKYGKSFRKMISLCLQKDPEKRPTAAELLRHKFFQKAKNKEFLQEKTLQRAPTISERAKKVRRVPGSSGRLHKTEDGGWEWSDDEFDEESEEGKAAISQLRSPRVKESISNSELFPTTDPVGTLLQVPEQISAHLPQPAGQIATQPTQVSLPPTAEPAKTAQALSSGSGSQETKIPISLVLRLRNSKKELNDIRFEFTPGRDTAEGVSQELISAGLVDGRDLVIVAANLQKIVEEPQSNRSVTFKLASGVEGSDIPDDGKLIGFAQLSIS
# [12] = target: Cyclin-dependent kinase 16 (Homo sapiens) (UniProt Q00536); conditions: Compound concentration 1000.0 nM
# [13] = target: Phosphorylase b kinase regulatory subunit alpha, liver isoform (Homo sapiens) (UniProt P46019); conditions: Compound concentration 1000.0 nM
# [14] = target: Phosphatidylinositol 4,5-bisphosphate 3-kinase catalytic subunit alpha isoform (Homo sapiens) (UniProt P42336); conditions: Compound concentration 1000.0 nM
# [15] = target: Serine/threonine-protein kinase pim-3 (Homo sapiens) (UniProt Q86V86); conditions: Compound concentration 1000.0 nM
# [16] = target: Protein kinase C theta type (Homo sapiens) (UniProt Q04759); conditions: Compound concentration 1000.0 nM
# [17] = target: Serine/threonine-protein kinase SIK3 (Homo sapiens) (UniProt Q9Y2K2); conditions: Compound concentration 1000.0 nM
# [18] = target: Serine/threonine-protein kinase RIO2 (Homo sapiens) (UniProt Q9BVS4); conditions: Compound concentration 1000.0 nM
# Sequence of Serine/threonine-protein kinase RIO2 (Homo sapiens) (Q9BVS4 whole entry, looked up): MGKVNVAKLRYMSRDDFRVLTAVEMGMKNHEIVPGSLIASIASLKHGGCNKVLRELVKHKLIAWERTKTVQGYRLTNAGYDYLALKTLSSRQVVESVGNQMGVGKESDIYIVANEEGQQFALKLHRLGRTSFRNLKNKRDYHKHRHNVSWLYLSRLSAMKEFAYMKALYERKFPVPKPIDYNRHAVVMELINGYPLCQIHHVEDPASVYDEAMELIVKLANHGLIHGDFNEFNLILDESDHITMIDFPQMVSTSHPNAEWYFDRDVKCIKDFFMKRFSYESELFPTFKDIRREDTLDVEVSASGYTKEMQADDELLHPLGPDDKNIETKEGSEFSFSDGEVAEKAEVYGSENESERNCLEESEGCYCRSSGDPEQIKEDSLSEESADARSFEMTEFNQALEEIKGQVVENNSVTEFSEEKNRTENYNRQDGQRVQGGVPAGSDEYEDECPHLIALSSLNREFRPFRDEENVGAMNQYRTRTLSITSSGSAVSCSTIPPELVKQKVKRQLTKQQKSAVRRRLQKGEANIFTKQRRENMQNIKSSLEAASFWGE
# [19] = target: Rho-associated protein kinase 2 (Homo sapiens) (UniProt O75116); conditions: Compound concentration 1000.0 nM
# Sequence of Rho-associated protein kinase 2 (Homo sapiens) (O75116 whole entry, looked up): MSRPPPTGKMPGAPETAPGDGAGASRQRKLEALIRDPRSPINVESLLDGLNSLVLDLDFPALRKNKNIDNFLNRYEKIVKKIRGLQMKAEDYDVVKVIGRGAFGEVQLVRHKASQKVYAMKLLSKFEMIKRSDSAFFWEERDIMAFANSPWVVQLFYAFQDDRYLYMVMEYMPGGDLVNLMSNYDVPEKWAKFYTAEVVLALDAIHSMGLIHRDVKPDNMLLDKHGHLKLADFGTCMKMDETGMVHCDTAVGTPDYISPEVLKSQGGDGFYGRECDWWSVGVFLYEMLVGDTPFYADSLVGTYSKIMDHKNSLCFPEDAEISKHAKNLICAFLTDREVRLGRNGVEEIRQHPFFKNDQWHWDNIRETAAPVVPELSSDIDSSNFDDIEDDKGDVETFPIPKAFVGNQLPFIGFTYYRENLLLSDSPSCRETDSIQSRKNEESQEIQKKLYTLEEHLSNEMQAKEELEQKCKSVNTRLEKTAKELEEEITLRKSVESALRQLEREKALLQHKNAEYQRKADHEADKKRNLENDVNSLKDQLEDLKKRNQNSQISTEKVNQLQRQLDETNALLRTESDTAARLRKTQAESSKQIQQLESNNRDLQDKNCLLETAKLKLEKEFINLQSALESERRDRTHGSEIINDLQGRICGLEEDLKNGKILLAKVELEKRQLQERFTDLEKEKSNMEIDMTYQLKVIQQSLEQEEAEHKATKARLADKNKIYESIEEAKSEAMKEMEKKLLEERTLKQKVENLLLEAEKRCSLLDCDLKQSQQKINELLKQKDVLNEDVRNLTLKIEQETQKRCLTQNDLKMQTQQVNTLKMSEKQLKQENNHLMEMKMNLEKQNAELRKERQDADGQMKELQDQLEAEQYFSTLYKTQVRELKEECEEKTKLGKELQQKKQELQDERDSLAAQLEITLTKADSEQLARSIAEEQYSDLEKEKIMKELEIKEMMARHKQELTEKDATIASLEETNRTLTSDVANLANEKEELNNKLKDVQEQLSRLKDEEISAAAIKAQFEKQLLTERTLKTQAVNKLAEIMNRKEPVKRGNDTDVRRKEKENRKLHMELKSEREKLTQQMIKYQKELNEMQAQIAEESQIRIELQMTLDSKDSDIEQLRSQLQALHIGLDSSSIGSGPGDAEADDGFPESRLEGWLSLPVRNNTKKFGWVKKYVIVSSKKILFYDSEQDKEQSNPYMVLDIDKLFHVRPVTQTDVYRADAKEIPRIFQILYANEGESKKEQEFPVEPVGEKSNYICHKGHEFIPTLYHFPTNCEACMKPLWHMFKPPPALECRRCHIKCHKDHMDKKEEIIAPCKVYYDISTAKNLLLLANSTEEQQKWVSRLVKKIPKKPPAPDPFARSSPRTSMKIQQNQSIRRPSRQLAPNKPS
# [20] = target: Ribosomal protein S6 kinase alpha-3 (Homo sapiens) (UniProt P51812); conditions: Compound concentration 1000.0 nM
# [21] = target: Serine/threonine-protein kinase 35 (Homo sapiens) (UniProt Q8TDR2); conditions: Compound concentration 1000.0 nM
# [22] = target: TRAF2 and NCK-interacting protein kinase (Homo sapiens) (UniProt Q9UKE5); conditions: Compound concentration 1000.0 nM
# [23] = target: Activated CDC42 kinase 1 (Homo sapiens) (UniProt Q07912); conditions: Compound concentration 1000.0 nM
# [24] = target: High affinity nerve growth factor receptor (Homo sapiens) (UniProt P04629); conditions: Compound concentration 1000.0 nM
# [25] = target: NT-3 growth factor receptor (Homo sapiens) (UniProt Q16288); conditions: Compound concentration 1000.0 nM
# Sequence of NT-3 growth factor receptor (Homo sapiens) (Q16288 32-839 limits assumed): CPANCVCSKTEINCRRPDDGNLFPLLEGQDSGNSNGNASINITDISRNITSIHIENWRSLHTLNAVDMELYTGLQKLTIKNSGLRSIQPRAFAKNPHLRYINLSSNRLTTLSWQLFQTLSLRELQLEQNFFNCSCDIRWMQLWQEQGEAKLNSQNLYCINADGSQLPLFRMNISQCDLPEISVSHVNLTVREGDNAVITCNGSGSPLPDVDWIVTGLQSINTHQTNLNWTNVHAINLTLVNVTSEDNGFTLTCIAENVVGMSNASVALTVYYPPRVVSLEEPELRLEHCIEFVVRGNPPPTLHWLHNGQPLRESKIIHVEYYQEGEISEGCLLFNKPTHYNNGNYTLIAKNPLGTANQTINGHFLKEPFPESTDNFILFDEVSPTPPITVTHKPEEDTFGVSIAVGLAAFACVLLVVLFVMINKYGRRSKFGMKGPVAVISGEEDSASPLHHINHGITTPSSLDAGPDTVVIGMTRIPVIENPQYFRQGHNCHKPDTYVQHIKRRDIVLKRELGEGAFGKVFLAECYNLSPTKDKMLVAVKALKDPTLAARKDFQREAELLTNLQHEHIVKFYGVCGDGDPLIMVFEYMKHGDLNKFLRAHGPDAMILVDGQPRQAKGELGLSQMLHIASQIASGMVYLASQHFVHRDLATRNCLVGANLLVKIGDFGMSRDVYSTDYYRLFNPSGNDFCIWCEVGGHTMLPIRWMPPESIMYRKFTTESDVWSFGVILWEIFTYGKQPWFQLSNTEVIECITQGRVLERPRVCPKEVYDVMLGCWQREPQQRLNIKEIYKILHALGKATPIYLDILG
# [26] = target: Testis-specific serine/threonine-protein kinase 3 (Homo sapiens) (UniProt Q96PN8); conditions: Compound concentration 1000.0 nM
# Sequence of Testis-specific serine/threonine-protein kinase 3 (Homo sapiens) (Q96PN8 whole entry): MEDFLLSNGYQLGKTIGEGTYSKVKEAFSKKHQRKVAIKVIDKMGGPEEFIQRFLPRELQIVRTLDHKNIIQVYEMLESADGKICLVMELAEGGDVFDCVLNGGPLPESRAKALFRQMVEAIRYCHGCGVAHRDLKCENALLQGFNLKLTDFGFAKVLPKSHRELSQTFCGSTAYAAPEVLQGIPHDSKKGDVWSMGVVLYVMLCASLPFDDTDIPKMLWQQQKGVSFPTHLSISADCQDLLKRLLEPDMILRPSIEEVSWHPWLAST
# [27] = target: Serine/threonine-protein kinase ULK3 (Homo sapiens) (UniProt Q6PHR2); conditions: Compound concentration 1000.0 nM
# [28] = target: Serine/threonine-protein kinase 32B (Homo sapiens) (UniProt Q9NY57); conditions: Compound concentration 1000.0 nM
# Sequence of Serine/threonine-protein kinase 32B (Homo sapiens) (Q9NY57 whole entry): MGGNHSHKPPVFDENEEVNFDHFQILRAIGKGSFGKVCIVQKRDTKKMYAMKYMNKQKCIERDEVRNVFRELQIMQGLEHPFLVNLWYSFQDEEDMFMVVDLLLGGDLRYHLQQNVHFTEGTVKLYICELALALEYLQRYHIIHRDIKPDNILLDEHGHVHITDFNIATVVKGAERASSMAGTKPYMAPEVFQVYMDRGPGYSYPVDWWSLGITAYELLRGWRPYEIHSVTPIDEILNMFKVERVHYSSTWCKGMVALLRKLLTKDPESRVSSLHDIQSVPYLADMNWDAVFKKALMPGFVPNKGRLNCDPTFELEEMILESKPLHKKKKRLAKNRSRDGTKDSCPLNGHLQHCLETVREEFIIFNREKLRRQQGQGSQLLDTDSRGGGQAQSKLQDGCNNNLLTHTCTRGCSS
# [29] = target: T2, 5-hydroxytryptamine receptor 2C (Homo sapiens) (UniProt P28335); conditions: Compound concentration 10.0 uM
# T2 sequence (whole entry): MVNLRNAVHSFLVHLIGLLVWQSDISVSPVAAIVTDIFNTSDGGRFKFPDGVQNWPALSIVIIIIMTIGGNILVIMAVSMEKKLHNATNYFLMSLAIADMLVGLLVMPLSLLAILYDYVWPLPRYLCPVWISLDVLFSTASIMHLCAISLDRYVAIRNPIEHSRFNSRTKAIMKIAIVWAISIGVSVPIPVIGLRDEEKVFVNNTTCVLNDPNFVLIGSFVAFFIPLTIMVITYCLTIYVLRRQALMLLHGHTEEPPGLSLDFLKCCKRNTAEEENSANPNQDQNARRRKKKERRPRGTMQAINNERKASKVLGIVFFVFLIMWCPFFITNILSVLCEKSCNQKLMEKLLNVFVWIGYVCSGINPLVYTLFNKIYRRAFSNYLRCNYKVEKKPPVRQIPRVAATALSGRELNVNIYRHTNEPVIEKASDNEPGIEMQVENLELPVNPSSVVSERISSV
SMILES,IC50 (Bcl-2-like protein 1),% Inhibition of Control Specific Binding (Mean n=2) [1] [%],"inhibition at 60 min, 10 µM (Na+ channel (site 2)) [%]",residual activity [2] [%],residual activity [3] [%],residual activity [4] [%],residual activity [5] [%],residual activity [6] [%],residual activity [7] [%],residual activity [8] [%],residual activity [9] [%],residual activity [10] [%],residual activity [11] [%],residual activity [12] [%],residual activity [13] [%],residual activity [14] [%],residual activity [15] [%],residual activity [16] [%],residual activity [17] [%],residual activity [18] [%],other results
O=C(NS(=O)(=O)c1ccc(NCC2CCOCC2)c([N+](=O)[O-])c1)c1ccc(N2CCN(Cc3ccc(C(F)(F)F)cc3-c3ccc(Cl)cc3)CC2)cc1Oc1cnc2[nH]ccc2c1 [A-1210227],> 25 µM (not active),12.3,-8.2,100,95,93,100,100,85,77,100,89,83,67,83,69,100,100,76,90,residual activity [19]: 100%; residual activity [20]: 100%; residual activity [21]: 95%; residual activity [22]: 100%; residual activity [23]: 100%; residual activity [24]: 100%; residual activity [25]: 100%; residual activity [26]: 79%; residual activity [27]: 85%; residual activity [28]: 100%; inhibition [29]: -0.17%
CO[C@H]1CC[C@H](CNc2ccc(S(=O)(=O)NC(=O)c3ccc(N4CCN(CC5=C(c6ccc(Cl)cc6)CC(C)(C)CC5)CC4)cc3Oc3cnc4[nH]ccc4c3)cc2[N+](=O)[O-])CC1 [A-1211212],0.753 µM (not active),20.6,-2.3,100,100,84,100,100,89,66,88,89,76,61,74,77,74,89,89,89,residual activity [19]: 100%; residual activity [20]: 71%; residual activity [21]: 93%; residual activity [22]: 100%; residual activity [23]: 96%; residual activity [24]: 100%; residual activity [25]: 100%; residual activity [26]: 70%; residual activity [27]: 80%; residual activity [28]: 100%; inhibition [29]: -4.69%
